Source: patent publication US7033829B2, “Method to inhibit cell growth using oligonucleotides” (Trustees of Boston University, priority 2000, dated 2006)
{P} = phosphate

How the values were obtained:
Jurkat cells = test: FACS cell cycle / apoptosis analysis of Jurkat cells; format: cell-based, human
Method: Oligonucleotides homologous to the telomere overhang repeat sequence (TTAGGG; SEQ ID NO:11), sequence (11mer-1: pGTTAGGGTTAG; SEQ ID NO: 5), complementary to this sequence (11mer-2: pCTAACCCTAAC; SEQ ID NO: 9) and unrelated to the telomere sequence (11mer-3: pGATCGATCGAT; SEQ ID NO: 10) were added to cultures of Jurkat cells, a line of human T cells, one of the cell types reported to undergo apoptosis in response to telomere disruption. Within 48 hours, 50% of the cells treated with 40 μM of SEQ ID NO: 5 had accumulated in the S phase, compared to 25–30% for control cells (p<0.0003, non-paired t-test; see FIGS. 19A–19D), and by 72 hours, 13% of these cells were apoptotic as determined by a sub-G0/G1 DNA content, compared to 2–3% of controls (p<0.007, non-paired t-test; see FIGS. 19E–19H). At 96 hours, 20±3% of the 11mer-1 treated cells were apoptotic compared with 3–5% of controls (p<0.0001, non-paired t-test). To exclude preferential uptake of the 11mer-1 as an explanation of its singular effects, Jurkat cells were treated with oligonucleotides labeled on the 3′ end with fluorescein phosphoramidite, then subjected to confocal microscopy and FACS analysis. The fluorescence intensity of the cells was the same after all treatments at 4 hours and 24 hours.
Three DNA oligonucleotides were designed initially: one homologous to the telomere overhang (11mer-1: pGTTAGGGTTAG; SEQ ID NO:5), one complementary to this sequence (11mer-2: pCTAACCCTAAC; SEQ ID NO:9) and one unrelated (11mer-3: pGATCGATCGAT; SEQ ID NO:10). For later experiments, additional 11 base oligonucleotides were designed: one a simple permutation of 11mer-1 (pGGGTTAGGGTT; SEQ ID NO:13), one with the same number of G residues but roughly 50% rather than 100% homology to the overhang (pTAGATGTGGTG; SEQ ID NO:14), and one with roughly 50% overhang homology but also containing cytosine bases (pCGGGCTTATTG; SEQ ID NO:15) (Midland Certified Reagent Company, Midland, Tex.). Cell Sources and Culture Human neonatal fibroblasts were established and cultured as previously described (Eller, M. S., et al., 1997, Proc Natl Acad Sci USA 94: 12627–12632). Fibroblasts from a Nijmegen breakage syndrome (NBS) patient (#GM07166) and an age-matched control (GM03399) were purchased from the NIGMS Human Cell Repository, Coriell Institute for Medical Research, Camden, N.J.) and cultured in DMEM/15% FBS. Saos-2 cells were purchased from the American Type Culture Collection (ATCC; Manassas, Va.). SCC12F cells were the kind gift of Dr. James Rheinwald, Harvard University. Cell Cycle Analysis The established line of human T lymphocytes, termed Jurkat cells (180,000 cells/ml) were plated in RPMI medium 1640 supplemented with 3% FBS (both from GIBCO/BRL, Gaithersburg, Md.). […] Cells were collected up to 96 hours after treatment, stained with propidium iodide and analyzed by FACS using a Becton-Dickinson FacsScan and CellQuest software. Caspase Activity
Oligonucleotides homologous to the 3′ overhang sequence (11mer-1: pGTTAGGGTTAG; SEQ ID NO:5), complementary to this sequence (11mer-2: pCTAACCCTAAC; SEQ ID NO:9) and unrelated to the telomere sequence (11mer-3: pGATCGATCGAT; SEQ ID NO:10) were synthesized. The three 11mer oligonucleotides were added to cultures of Jurkat cells, an established line of human T lymphocytes, a cell type reported to undergo apoptosis in response to telomere disruption [Karlseder, J., et al, (1999) Science 283, 1321–1325] and DNA damaging ionizing radiation (IR) [Vigorito, E., et al, (1999), Hematol Cell Ther 41, 153–161]. Duplicate cultures of Jurkat cells were treated with a final concentration of 40 μM 11mer-1, -2 or -3, oligonucleotides, or an equal volume of diluent (water) as a control. Cells were collected up to 96 hours after treatment, stained with propidium iodideandanalyzed by FACS. See also Example 13 and FIGS. 19A–19H.
To further confirm the specificity of these responses to the telomere overhang sequence, three variations were tested. […]

[1] = system: Human squamous carcinoma cell line SCC12F cells; test: Cell growth / cell yield of SCC12F cells (Coulter counter); format: cell-based; settings: after 2 days; FIG. 14
Method: Human squamous carcinoma cell line SCC12F cells were maintained in primary keratinocyte medium (300 ml DME, 100 ml F-12 nutrient supplement, 50 ml 10× adenine, 50 ml fetal bovine serum, 5 ml penicillin/streptomycin stock, and 0.5 ml of 10 μg/ml epidermal growth factor and hydrocortisone to final concentration of 1.4 μg/ml) and dosed with either water (diluent), 100 μM pTpT (T2, Midland Certified Reagent Company, Midland, Tex.) or 100 μM pdApdA (A2). Cells were harvested before dosing (day 0), and 1, 3, 4, and 5 days after dosage, and were counted by Coulter™ counter. After harvesting, the cells were processed for total RNA isolation and were analyzed by Northern blot. Addition of a control deoxyadenine dinucleotide (pdApdA), a compound very similar to pTpT but not readily dimerized by UV irradiation, and therefore rarely excised during the course of UV-induced DNA repair, has no effect.
In a second experiment, SCC12F cells were cultured as described above. Two or three days after seeding, the preconfluent cultures were given fresh medium supplemented with either 100 μM T2 or diluent as a control. Cells were collected daily by trypsinization and counted by Coulter™ counter. The cell yield in cultures treated with T2 was reduced by […] compared to that of paired control cultures after five days (FIG. 2). This corresponds to 2.3 population doublings in this time for control cells, compared with 1 doubling for T2-treated cells.
(§1) pTpT was previously found to inhibit cell cycle progression, at least in part through activation of p53 and subsequent upregulation of the cyclin dependent kinase inhibitor p21. Cultures of the human keratinocyte line SCC12F were treated with pTpT, SEQ ID NO: 1, SEQ ID NO: 6 or diluent alone as a negative control, collected and counted 48 hours later and processed for northern blot analysis of p21 mRNA expression. […] Thus, the sequences of the present invention activate p53 and inhibit cell proliferation similar to the effect of pTpT.
Exposure of keratinocytes to UVB irradiation affects the expression of genes involved in cell cycle arrest, DNA repair and cytokine production. Single-stranded oligonucleotides sharing sequence homology with the telomere 3′ overhang, when introduced into cells, mimic these UV effects. To identify other genes that may be similarly modulated, cells of keratinocyte origin (SCC12F; a human epidermal squamous cell carcinoma line provided by Dr. James Rheinwald of Harvard University) were exposed to solar simulated irradiation (SSR) (20 mJ/cm^2, measured at 285±5 nm), to an 11-base oligonucleotide (pGTTAGGGTTAG; SEQ ID NO:5) homologous to the telomere overhang (T-oligo), or to a complementary sequence as control [pCTAACCCTAAC; (SEQ ID NO:9) control oligonucleotide]. […] These are mitochondrial-transcribed genes whose encoded proteins participate in cellular respiration.

[2] = system: Cloudman S91 mouse melanoma cells; test: Melanin content of Cloudman S91 melanoma cells; format: cell-based; settings: for increase in melanin content: variations of the 9-mer, cells not given; for melanogenic activity: with 5′ phosphate, FIG. 18
Method: (§2) The induction of melanogenesis in Cloudman S91 mouse melanoma cells by a five-nucleotide oligomer CATAC (SEQ ID NO: 6) and a nine-nucleotide oligomer, GAGTATGAG (SEQ ID NO: 1) was examined. Duplicates of Cloudman S91 murine melanoma cells were incubated with either 100 μM oligo or an equal volume of diluent (H2O) for 5 days. The cells were then collected, counted, and an equal number of cells were pelleted for melanin analysis. […] Variations of this oligonucleotide were evaluated: a scrambled 9-mer (TAGGAGGAT; SEQ ID NO: 2) and two truncated versions, a 7-mer (AGTATGA; SEQ ID NO: 3) and second 5-mer (GTATG; SEQ ID NO: 4). […] The truncated versions (SEQ ID NOs: 3 and 4) were also active, inducing 640% and 670% increases, respectively.
Cultures of Cloudman S91 murine melanoma cells were treated for 5 days with SEQ ID NO: 1, SEQ ID NO: 6, pTpT as a positive control, or an equal volume of diluent as a negative control. […] SEQ ID NO: 6 produced a slight increase in melanin, to 165+/−77% of control levels. SEQ ID NO: 1 stimulated melanin content to an average of 600+/−260% of control levels.
pTpT, shown previously to stimulate pigmentation in these cells, was used as a reference treatment, and diluent alone was used as a negative control. After five days of treatment with the oligonucleotides, the cells were collected, counted, and an equal number of cells were pelleted for melanin analysis. […] SEQ ID NO: 5, representing the telomere over-hang sequence, also at 10 μM, increased the melanin level to 10 times that of control cells.
S91 cells were cultured in the presence of diluent alone, pTpT p9mer (SEQ ID NO: 1), p7mer (AGTATGA; SEQ ID NO: 7) or p5mer #2 (SEQ ID NO: 4). […] Both SEQ ID NOS: 4 and 7 stimulated a 7–8 fold increase in melanin.
S91 cells were cultured for 5 days in the presence of the thymidine dinucleotides or SEQ ID NO: 1 with or without a 5′ phosphate or diluent alone as a negative control.
Cultures of S91 mouse melanoma cells (100,000 cells/38 cm^2) were treated with 100 μM pTpT or phosphorothioate pTpT (pTspT) (FIG. 22) or 40 μM 11mer-1 or the phosphorothioate 11mer-1 (11mer-1-S) (FIG. 23) for 6 days and were then collected, counted and assayed for melanin content.
Duplicate cultures of S91 cells (100,000 cells/39 cm^2) were either sham-irradiated or irradiated with 5 mJ/cm^2 solar-simulated light from a 1 kW xenon arc solar-simulator (XMN 1000-21, Optical Radiation, Azuza, Calif.) metered at […] using a research radiometer (model IL1700A, International Light, Newburyport, Mass.). Two sham-irradiated plates were then supplemented with 100 μM pTspT and two irradiated cultures were similarly treated with pTspT. After one week, cells were collected, counted and analyzed for melanin content by dissolving the cell pellets in 1 N NaOH and measuring the optical density at […]. […] However, this response was blocked by the addition of pTspT (FIG. 24). In addition, the constitutive pigmentation of these cells was reduced by the pTspT in the sham-irradiated cultures, similar to the data presented in FIGS. 22 and 23.

p21/Waf 1/Cip 1 gene = test: p21 mRNA Northern blot in SCC12F cells; format: cell-based, human; settings: 48 hours
Method: as §2, §1

S91 cells = test: Cellular uptake of FAM-labeled oligonucleotides in S91 cells; format: in vitro ADME, mouse; settings: 4 hours
Method: Fluorescein phosphoramidite (FAM) labeled oligonucleotides were added to cultures of S91 cells for 4 hours and the cells were then prepared for confocal microscopy. Nuclei, identified by staining with propidium iodide, appeared red and FAM-labeled oligonucleotides appeared green. Co-localization of red and green signals was assigned a yellow color by the computer. […] There was no change in the profile of oligonucleotide uptake after 6 and 24 hours.

Substance: pTAGATGTGGTG (DNA, 5' {P}, backbone not given here) [SEQ ID NO:14]
- apoptotic cells by FACS analysis (Jurkat cells; 10 μM, 72 hours): 10%
- apoptotic cells by FACS analysis (Jurkat cells; 10 μM, 96 hours): 16%

Substance: CATAC (DNA, phosphodiester; further chemistry not given here) [SEQ ID NO: 6]
- reduction of cell number [1]: 25%
- pigment content increase, of control levels ([2]; 100 μM, 5 days, three experiments): 61%±60%
- melanin content, of control cells ([2]; 5 days, FIG. 12): 165+/−77%
- increase in p21 mRNA level (p21/Waf 1/Cip 1 gene): 10–20%

Substance: GAGTATGAG (DNA, phosphodiester; further chemistry not fully specified) [SEQ ID NO: 1 without 5′ phosphorylation]
- cellular uptake and localization (confocal microscopy, FACS) (S91 cells): only moderate uptake

Substance: GTATG (DNA, phosphodiester; further chemistry not fully specified) [SEQ ID NO: 4]
- increase in melanin content [2]: 670%

Substance: TAGGAGGAT (DNA, phosphodiester; further chemistry not fully specified) [SEQ ID NO: 2]
- increase in melanin content [2]: 800%

Substance: TTAGGG (Synthetic DNA Fragment) [SEQ ID NO: 11]
- melanogenic activity [2]: highly melanogenic

Substance: pCGGGCTTATTG (DNA, 5' {P}, backbone not given here) [SEQ ID NO:15, reference compound]
- apoptosis and S-phase arrest (Jurkat cells; 10 μM): failed to induce apoptosis and only induced a moderate S-phase arrest
- apoptotic cells by FACS analysis (Jurkat cells; 10 μM, 72 hours): 2%
- apoptotic cells by FACS analysis (Jurkat cells; 10 μM, 96 hours): 2–4%

Substance: pGGGTTAGGGTT [SEQ ID NO:13]
- apoptotic cells by FACS analysis (Jurkat cells; 10 μM, 72 hours): 13%
- apoptotic cells by FACS analysis (Jurkat cells; 10 μM, 96 hours): 28%
- activity of the two complete telomere overhang homologs (Jurkat cells; separate paired cultures): equal in activity

Substance: AGTATGA (DNA, phosphodiester; further chemistry not fully specified) [SEQ ID NO: 3]
- increase in melanin content [2]: 640%

Substance: CCCTAA (DNA, backbone not given here) [SEQ ID NO: 12]
- melanogenic activity [2]: less active

Substance: pTspT
- melanogenesis ([2]; 100 μM dinucleotides or 40 μM 11mers, 6 days): did not
- constitutive pigmentation ([2]; 100 μM pTspT or 40 μM 11mer-1-S, 6 days or one week): reduced the constitutive pigmentation
- UV-induced doubling of melanin content ([2]; 100 μM, 5 mJ/cm^2 solar-simulated light, one week): blocked

Substance: pGCATGCATGCATTACGTACG (DNA, 5' {P}, backbone not given here) [SEQ ID NO: 8]
- pigmentation relative to control cells ([2]; FIG. 16): twice the level of control cells
- cellular uptake and localization (confocal microscopy, FACS) (S91 cells): pattern of fluorescence very similar to that seen with phosphorylated SEQ ID NO: 1
